Values after ≈ are worked out from the molar mass of the structure shown. Residues, ends and D or L forms follow the SMILES beside them. No end group written: not given here.
Key:
A. baumannii 4367992 = assay: MIC by broth microdilution; format: cell-based, Acinetobacter baumannii; settings: 37 °C, 24 h; for MIC / inhibitory concentration against A. baumannii: strain not given, broth microdilution
Procedure: (§1) Evaluation of the MIC of synthetic peptides was performed using broth microdilution techniques according to the guidelines of the Clinical and Laboratory Standards Association (CLSI). The antimicrobial spectrum and biological activity of the above chemically synthesized peptides were tested against six Gram-positive bacteria, five Gram-negative bacteria and one fungus. Overnight cultures of the 11 bacteria were grown in MHB at 37 °C and C. albicans was grown in Sabouraud dextrose broth (SDB) medium (Sangon, Shanghai, China) and cultured at 37 °C to mid-log phase and diluted to 1.5 × 10^6 CFU/ml. In a polypropylene 96-well round-bottom plate, 50 μl of bacteria was mixed with 50 μl of designed synthetic peptide dissolved in sterile distilled water (final concentration of 0–64 μM). Sterile distilled water was used as a negative control and polymyxin B dissolved in sterile distilled water as a positive control.

A. baumannii (4367992) = assay: Time-killing assay (growth curve, absorbance at 600 nm); format: cell-based, Acinetobacter baumannii
Procedure: The effect of peptides on the growth of an A. baumannii (4367992) isolate was examined as follows: the strain was cultured in nutrient agar for 18–20 h and adjusted to 0.5 McFarland units with MHB medium, then diluted 1:20 in MHB medium. Each peptide was added to one culture tube at a final concentration of 1× MIC or 2× MIC. […] The cultures were incubated for 24 h at 37 °C with shaking at 200× rpm, and the absorbance at 600 nm of 1 ml aliquots was recorded at 0.5–2 h intervals.

[1] = system: tested microorganisms (Gram-positive bacteria, Gram-negative bacteria, one fungus); assay: MIC by broth microdilution, summary over the panel of tested microorganisms; format: cell-based; settings: at concentrations up to 32 μM
Procedure: as §1

[2] = system: extensive-drug-resistant A. baumannii (4367992); assay: Leakage of 260 nm absorbing material; format: cell-based, Acinetobacter baumannii; settings: 0.5× MIC and 2× MIC, 0–8 h, 37 °C, 1 × 10^6 CFU/ml; three independent experiments
Procedure: The reference method was slightly modified, taking the logarithmic growth phase of extensive-drug-resistant A. baumannii (4367992) as detected bacteria. Five millilitres of bacterial suspension (1 × 10^6 CFU/ml) was treated with different concentrations of antimicrobial peptides (0.5× MIC, 2× MIC). After being placed at 37 °C and 150× rpm, aliquots (0.5 ml) of the treated bacterial suspension were removed at different intervals (0, 0.5, 1, 2, 4, 6 and 8 h). The aliquots were centrifuged (1000× rpm, 5 min) and the absorbance of supernatant was measured at 260 nm, using PBS as the control.

Compound: CC[C@H](C)CCCCC(=O)N[C@@H](CCN)C(=O)N[C@H](C(=O)N[C@@H](CCN)C(=O)N[C@H]1CCNC(=O)[C@H]([C@@H](C)O)NC(=O)[C@H](CCN)NC(=O)[C@H](CCN)NC(=O)[C@H](CC(C)C)NC(=O)[C@@H](Cc2ccccc2)NC(=O)[C@H](CCN)NC1=O)[C@@H](C)O [polymyxin B, reference compound] (HELM PEPTIDE1{[CC[C@H](C)CCCCC(=O)[*:2]].[Dab].T.[Dab].[Dab].[Dab].[dF].L.[Dab].[Dab].T}$PEPTIDE1,PEPTIDE1,5:R3-11:R2$$$V2.0; N-terminus assumed; bridges inferred)
- MIC (A. baumannii 4367992; A. baumannii 4367992 (extensive-drug-resistant isolate), broth microdilution (CLSI), MHB, visual growth): 1.05 µM (≈ 1.26 µg/mL)
- duration of antibacterial effect on A. baumannii (A. baumannii (4367992); Cec4 at 1× MIC and 2× MIC, polymyxin B at 1× MIC (1.05 μM), MHB, 37 °C, 200 rpm, absorbance 600 nm over 24 h, three independent experiments): ≤ 12 h

Compound: GWLKDFGRRIERVGQHTRDATIQAIGVAQQATDVAATLKGK [Cec9]
- inhibitory effect on the other experimental strains (other than E. coli) [1]: no inhibitory effect

Compound: GWLKKIGKKIERVGQNTRDATIQAIGVAQQAANVAATLKGK [Cec4]
- MIC / inhibitory concentration against A. baumannii (A. baumannii 4367992): 0.5 µM
- time-kill kinetics, killing pattern (A. baumannii (4367992); A. baumannii in the logarithmic growth phase): rapid and concentration-dependent killing pattern
- leakage of 260 nm absorbing material (maximum absorbance at 260 nm) [2]: dose-dependent increase

Compound: GWLKKVGKKIERVGQHTRDATIQGLGVAQQAANVVATVKGK [Cec3]
- MIC / inhibitory concentration against A. baumannii (A. baumannii 4367992): 32 µM

From PMC6857134, “Antimicrobial functional divergence of the cecropin antibacterial peptide gene family in Musca domestica” (Parasites & Vectors, 2019)
